Experimental data taken from patent US20220017833A1, “Methods and Compositions for Scavenging Sulfides from Hydrocarbon Fluids and Aqueous Streams” (Nexgen Oilfield Chemicals, LLC, priority 2019, published 2022).

Tests used:
Assay type in all cases: physicochemical
[1] = Spent Water Flowability Test; design: key: Pass: A homogeneous, single-phase solution or thin layer of readily flowable non-sticking liquid constitutes a pass.; Fail: Any solids or thick, sticky insoluble liquid is a fail.; PASS: A homogeneous, single-phase solution or thin layer of readily flowable non-sticking liquid constitutes a pass.; FAIL: Any solids or thick, sticky insoluble liquid is a fail; settings: Table 5; glyoxy alkyl diaminol in water and MeOH only
Method: In field applications, spent scavenger is disposed of through a wastewater system. Spent scavenger might be soluble in the scavenger system but insoluble in wastewater. If it cannot be disposed of, it is not suitable for use. To ensure wastewater processing runs trouble free, spent scavenger passing the Spent Solids Fouling Test is then added to 39 times its weight in water (2.5%) and examined again for insoluble solids and viscous, sticky liquids that might foul the wastewater system. Any solids or thick, sticky insoluble liquid is a fail. A homogeneous, single-phase solution or thin layer of readily flowable non-sticking liquid constitutes a pass.

[2] = Solution Homogeneity Test; settings: Table 5; glyoxy alkyl diaminol in water and MeOH only
Description: In one aspect, as two-phase reaction products are problematic, scavenger system homogeneity is desired. The two phases could be emulsified or otherwise finely dispersed, but in practice, even fine, seemingly stable dispersions eventually separate or stratify in extended storage or critical use and are not robust enough for practical use. They are not allowed, for example, to be fed through capillaries for fear of plugging them. In this pass/fail test, a sample is held up for visual inspection in a backlit clear vial. A clear, single-phase, homogeneous solution is a pass. Anything else is a fail.

[3] = Hot Spray Fouling Test; settings: Table 5; glyoxy alkyl diaminol in water and MeOH only
Description: In many gas applications, the scavenger must by sprayed into a hot gas stream. This can create insoluble materials (“solids”) as the scavenger system evaporates and/or decomposes. These solids accumulate and foul (interfere with the function) of the vessel, line, or equipment to which the scavenger is being fed. This precludes the scavenger being used in that application. Referring now to FIG. 2, a spray test system 200 is utilized to for the Hot Spray Fouling Test. In one embodiment, an injection atomizer apparatus 22 is employed, wherein the scavenger formulation (not separately labeled) is sprayed onto a sheet 26 through an atomizing nozzle 24, like that used to introduce the scavenger into a gas line, tank, or vessel. The material is first placed in a double boiler (not shown) and brought to 180° F. The heated liquid is then placed in the injection atomizer apparatus 22 and sprayed horizontally onto an aluminum sheet 26 twelve inches away. The chemical drains gravitationally down the sheet where it is funneled into a beaker 28 for collection. If solids are observed on the sheet 26 or in the draining or collected fluid, the sample fails. If no solids are observed, it passes the test.

[4] = Spent Solids Fouling Test; settings: Table 5, glyoxy alkyl diaminol in water and MeOH only
Description: In every application, the active component of the scavenger system reacts with H2S to from a reaction product. Once all the active scavenger has been so reacted, it is spent. […] Thioethers are much less water soluble than amines, so the reaction products are often insoluble. Thioether bridges also connect spent scavenger molecules to each other, thereby forming insoluble polymeric solids. These solids accumulate and foul (interfere with the function) of the vessel, line, or equipment to which the scavenger is being fed. […] If any solids or insoluble viscous liquids are observed poorly dispersed in the spent scavenger system or clinging to the sides of the vessel, the scavenging system employed in that Long Reaction Time Capacity Test fails this test. A homogeneous, single-phase solution or thin layer of readily flowable non-sticking liquid constitutes a pass.

[5] = Storage Capacity Loss Test; settings: for BT Capacity Loss / FD Capacity Loss: 72-24 Hrs storage at room temperature; for Min to BT / Min to FD: Short Reaction Time Capacity Test, diaminol in water + 10.00 g MeOH, 20 g test
Method: This test compares the scavenging capacity after 24 hours of storage of the scavenger system at room temperature to that after 72 hours of storage thereof at room temperature. In one embodiment, a sample of the scavenger system is made fresh and split in two portions. The Short Reaction Time Capacity Test is run on one portion after standing 24 hours on the bench at room temperature. Then the same test is run on the other portion after standing 72 hours on the bench at room temperature. The two measured capacities are compared to see if the product degrades in storage. Importantly, some scavengers lose activity with time due to secondary reactions and re-equilibrations that degrade their active form.
Table 5 compares different alkyl substituents on glyoxy alkyl diaminols. These compounds were prepared by reacting one mole of glyoxal, as a 40% aqueous solution, with 2.1 moles of various primary amines in a sufficient amount of MeOH to keep the product from separating into an aqueous layer and a non-aqueous layer. For each amine substituent: methyl (Me), ethyl (Et), normal-propyl (n-Pr), iso-propyl (i-Pr), and iso-propanol [1-propan-2-ol] (i-PrOH), the presence or absence of alpha branching on that substituent is noted. The weight ratios of the diaminols, water, and MeOH, are listed, along with their equivalent weights (Eq. Wt.) and the total equivalents per 20 g test (Eq/test). To measure the product stability, the Storage Capacity Loss between 24 and 72 hours was determined. As described earlier, a fresh sample of the scavenger system is split in two portions. The Short Reaction Time Capacity Test is run on one portion after standing 24 hours on the bench at room temperature. Then the same test is run on the other portion after standing 72 hours on the bench at room temperature. Both the 24-hr and 72-hr capacities (Min to FD and BT) and molar capacities (Min/Eq FD and BT) are listed in the table with the percent capacity loss for each substituent calculated below it. […] The others lost 34% to 77% of their scavenging capacity in 48 hours (72-24), presumably due to secondary reactions and re-equilibrations that degraded their active form. In this system employing only methanol, all of these compositions failed both the Hot Spray Fouling Test and the Spent Water Flowability Test. Two of them, the iso-propylamine [propan-2-amine] and the iso-propanolamine [1-aminopropan-2-ol] passed the Spent Solids Fouling Test.

[6] = Sample Age 24 Hrs at room temperature
[7] = Sample Age 72 Hrs at room temperature

SMILES | Spent Water Flowability [1] | Solution Homogeneity [2] | Hot Spray Fouling [3] | Spent Solids Fouling [4] | BT Capacity Loss [5] | FD Capacity Loss [5] | Min/Eq BT ([5]; Sample Age 24 Hrs) | Min/Eq FD ([5]; Sample Age 24 Hrs) | Min to BT [5, 6] | Min to FD [5, 6] | Min/Eq BT ([5]; Sample Age 72 Hrs) | Min/Eq FD ([5]; Sample Age 72 Hrs) | Min to BT [5, 7] | Min to FD [5, 7] | Spent Solids Fouling ([4]; listed as iso-propanolamine)
CCNC(O)C(O)NCC (stereo not drawn) [Et] | Fail | Pass | Fail | Fail | 46% | 71% | 436 Min/Eq | 365 Min/Eq | 37 min | 31 min | 236 Min/Eq | 106 Min/Eq | 20 min | 9 min | –
CC(O)CNC(O)C(O)NCC(C)O (stereo not drawn) | Fail | Pass | Fail | Pass | 67% | 54% | 444 Min/Eq | 192 Min/Eq | 30 min | 13 min | 148 Min/Eq | 89 Min/Eq | 10 min | 6 min | passed
CNC(O)C(O)NC (stereo not drawn) [Me] | Fail | Pass | Fail | Fail | 34% | 47% | 301 Min/Eq | 156 Min/Eq | 29 min | 15 min | 197 Min/Eq | 83 Min/Eq | 19 min | 8 min | –
CCCNC(O)C(O)NCCC (stereo not drawn) [n-Pr] | Fail | Pass | Fail | Fail | 55% | 77% | 501 Min/Eq | 409 Min/Eq | 38 min | 31 min | 224 Min/Eq | 92 Min/Eq | 17 min | 7 min | –
